From paper PMC6271944 (Molecules, 2014)

What was measured:
rat CYP1A2 = settings: cited from earlier work
UGT1A1 = tested on: UGT1A1; design: dose or concentration left out as unconfirmed; settings: cited from earlier work
CYP2C8 = target: T1, CYP2C8 (Homo sapiens, UniProt P10632); test: CYP inhibition in human liver microsomes, substrate cocktail, LC-MS/MS (paclitaxel); type: in vitro ADME; settings: metabolite 6α-hydroxypaclitaxel, read-out: IC50 for HLM, CYP2C8
T1 construct: Pooled human liver microsomes (HLM, LOT 32556) were purchased from BD Gentest Corporation; tissue BD Gentest Corporation LOT 32556; host or cells: pooled human liver microsomes
T1 sequence (P10632 1-490): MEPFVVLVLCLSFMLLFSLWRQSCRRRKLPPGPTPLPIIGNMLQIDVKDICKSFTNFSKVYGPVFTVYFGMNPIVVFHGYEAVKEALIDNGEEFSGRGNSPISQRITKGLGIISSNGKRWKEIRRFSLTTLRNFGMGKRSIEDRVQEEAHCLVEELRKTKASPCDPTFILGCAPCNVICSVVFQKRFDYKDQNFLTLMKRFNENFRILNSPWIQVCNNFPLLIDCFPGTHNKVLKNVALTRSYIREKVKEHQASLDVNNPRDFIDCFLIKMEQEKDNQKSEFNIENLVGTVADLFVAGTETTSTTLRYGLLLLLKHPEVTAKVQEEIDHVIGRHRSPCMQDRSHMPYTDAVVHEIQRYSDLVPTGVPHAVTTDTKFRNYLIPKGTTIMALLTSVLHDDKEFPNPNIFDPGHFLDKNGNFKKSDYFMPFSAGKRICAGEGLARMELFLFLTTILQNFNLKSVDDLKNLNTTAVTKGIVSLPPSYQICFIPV
From the text: (§1) Positive controls (furafyline for CYP1A2, montelukast for CYP2C8, sulfaphenazole for CYP2C9, S-(+)-N-3-benzylnirvanol for CYP2C19, quinidine for CYP2D6, ketoconazole for CYP3A4) and specific substrates (phenacetin for CYP1A2, paclitaxel for CYP2C8, diclofenac for CYP2C9, S-mephenytoin for CYP2C19, dextromethorphan for CYP2D6, midazolam for CYP3A4) are consistent with our previous papers. The substrates were used at concentrations approximately equal to their respective Michaelis-Menten constant (Km) values: 10 μM phenacetin, 5 μM paclitaxel, 5 μM diclofenac, 200 μM S-mephenytoin, 5 μM dextromethorphan, and 2 μM midazolam. NADP^+ was added after a 15 min preincubation of all other components at 37 °C. After a given incubation time (30 min), the reactions were terminated by addition of 60 μL ice-cold acetonitrile containing gemfibrozil and buspirone as internal standards. Incubation samples were stored at −80 °C until used in liquid chromatography-tandem mass spectrometry (LC-MS/MS) analysis. The mixture was centrifuged at 3,500 rpm for 5 min. The supernatant was mixed with equal volume of a 1:1 mixture of methanol and water and 20 μL of the final mixture was used for LC-MS/ MS analysis. […]
(§2) The CYP inhibition potential were evaluated by measuring the formation of one or more metabolites of the test substrates. […]

CYP2C19 = target: T2, CYP2C19 (Homo sapiens, UniProt P33261); test: CYP inhibition in human liver microsomes, substrate cocktail, LC-MS/MS (S-mephenytoin); type: in vitro ADME; settings: metabolite 4-hydroxymephenytoin, 95% CI in brackets, read-out: IC50 for HLM, CYP2C19
T2 construct: Pooled human liver microsomes (HLM, LOT 32556) were purchased from BD Gentest Corporation; tissue BD Gentest Corporation LOT 32556; host or cells: pooled human liver microsomes
T2 sequence (P33261 whole entry): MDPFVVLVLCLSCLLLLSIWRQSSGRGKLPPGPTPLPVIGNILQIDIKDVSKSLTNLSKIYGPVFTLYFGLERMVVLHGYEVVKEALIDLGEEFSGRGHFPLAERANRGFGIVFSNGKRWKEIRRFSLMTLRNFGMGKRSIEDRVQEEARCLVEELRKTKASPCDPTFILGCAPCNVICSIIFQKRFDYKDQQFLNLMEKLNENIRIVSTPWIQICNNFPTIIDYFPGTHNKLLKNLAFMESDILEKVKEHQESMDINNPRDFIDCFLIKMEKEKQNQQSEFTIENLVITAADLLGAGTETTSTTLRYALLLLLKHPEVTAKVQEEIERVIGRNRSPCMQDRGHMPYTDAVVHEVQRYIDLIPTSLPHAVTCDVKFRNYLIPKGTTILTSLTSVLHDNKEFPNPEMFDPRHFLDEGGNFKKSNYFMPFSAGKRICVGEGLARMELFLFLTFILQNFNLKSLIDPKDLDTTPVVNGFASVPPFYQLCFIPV
From the text: as §1, §2

UGT1A9 = tested on: UGT1A9; design: dose or concentration left out as unconfirmed; settings: cited from earlier work
CYP2C79 = test: CYP inhibition in rat liver microsomes, substrate cocktail, LC-MS/MS (S-mephenytoin); type: in vitro ADME; settings: pH 7.4, probe S-mephenytoin 200 μM, 95% CI in brackets, read-out: IC50 for RLM, CYP2C79 (table row CYP2C19)
From the text: as §1, §2

P-gp = target: T3, P-gp (Homo sapiens, UniProt P08183); test: P-gp inhibition, calcein-AM fluorometry assay in WM-266-4 cells; type: cell-based; settings: probe calcein-AM (1 μM), all six concentrations 4.1~1,000 μM, response relative to verapamil at 100 μM
T3 construct: host or cells: WM-266-4 human melanoma cells
T3 sequence (P08183 whole entry): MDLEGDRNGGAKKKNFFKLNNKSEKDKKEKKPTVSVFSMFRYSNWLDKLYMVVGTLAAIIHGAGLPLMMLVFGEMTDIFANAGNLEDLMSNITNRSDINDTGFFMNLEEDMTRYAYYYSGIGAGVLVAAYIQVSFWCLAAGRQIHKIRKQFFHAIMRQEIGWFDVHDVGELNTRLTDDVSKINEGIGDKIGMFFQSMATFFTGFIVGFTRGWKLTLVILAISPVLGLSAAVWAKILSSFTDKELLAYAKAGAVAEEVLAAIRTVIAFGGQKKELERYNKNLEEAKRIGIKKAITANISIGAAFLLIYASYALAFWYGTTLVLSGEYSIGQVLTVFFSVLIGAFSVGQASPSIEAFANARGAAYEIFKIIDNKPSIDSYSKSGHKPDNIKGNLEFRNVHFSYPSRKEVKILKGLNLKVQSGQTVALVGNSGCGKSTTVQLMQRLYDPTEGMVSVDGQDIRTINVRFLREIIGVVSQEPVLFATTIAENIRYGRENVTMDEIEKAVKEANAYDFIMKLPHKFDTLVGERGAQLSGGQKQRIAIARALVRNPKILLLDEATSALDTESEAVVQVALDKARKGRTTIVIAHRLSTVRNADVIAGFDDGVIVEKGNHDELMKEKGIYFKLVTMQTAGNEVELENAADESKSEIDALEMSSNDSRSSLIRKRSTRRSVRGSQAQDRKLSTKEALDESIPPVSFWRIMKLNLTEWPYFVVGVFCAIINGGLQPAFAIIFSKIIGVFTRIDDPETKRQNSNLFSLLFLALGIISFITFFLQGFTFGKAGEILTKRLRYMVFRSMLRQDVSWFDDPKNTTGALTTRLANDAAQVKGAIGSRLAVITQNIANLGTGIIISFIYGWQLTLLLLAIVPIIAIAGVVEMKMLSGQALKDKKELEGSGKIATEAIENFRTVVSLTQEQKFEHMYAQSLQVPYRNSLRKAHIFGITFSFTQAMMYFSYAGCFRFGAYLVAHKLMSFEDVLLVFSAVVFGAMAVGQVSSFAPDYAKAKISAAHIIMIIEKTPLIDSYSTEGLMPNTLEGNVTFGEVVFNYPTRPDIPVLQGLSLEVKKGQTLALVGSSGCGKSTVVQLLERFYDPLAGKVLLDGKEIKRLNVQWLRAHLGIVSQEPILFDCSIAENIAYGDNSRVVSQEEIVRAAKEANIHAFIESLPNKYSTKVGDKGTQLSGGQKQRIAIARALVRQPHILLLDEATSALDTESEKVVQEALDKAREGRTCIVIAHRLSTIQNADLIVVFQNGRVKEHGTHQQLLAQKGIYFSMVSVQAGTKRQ
Method: One vial of WM-266-4 cells was thawed and cultured in a 15 cm culture dish overnight. Cells were split the next day and transferred onto a clear bottom 96-well plate with 5.0 × 10^4 cells per well. […] Verapamil was used as a positive control at a concentration of 100 μM and 1% DMSO was used as a negative control. After 30 min of incubation time, calcein-AM diluted with 50 μL culture media without serum was added to a concentration of 1 μM and the sample was incubated for an additional 30 min. The plates were placed in the Flexstation II (Molecular Devices) and fluorescence was measured at excitation and emission wavelengths of 494 and 517 nm, respectively.
The P-gp inhibitor verapamil was used as positive control at a concentration of 100 μM. The experiment was considered valid if an increase in fluorescence greater than 5-fold was observed. For P-gp inhibition, a compound with a response less than 25% of verapamil at 100 μM is normally reported as “negative” at the tested concentration. The percent response value was used to determine and report the P-gp interaction at the tested concentration. A response equal to or greater than 25% of verapamil at 100 μM was considered to be “positive” at the tested concentration.

Which results are given for `O=C(O)[C@H]1O[C@@H](Oc2cc3oc(-c4ccc(O)cc4)cc(=O)c3c(O)c2O)[C@H](O)[C@@H](O)[C@@H]1O` [scutellarin, Scutellarin]?
IC50 (rat CYP1A2; in vitro experiments): 108.2 ± 0.657 µM; Ki (rat CYP1A2; weak mixed-type inhibition, read-out: Ki against the activity of CYP1A2): 95.2 µM; inhibition towards the activity of UGT1A1 (UGT1A1): 48.8%; IC50 (CYP2C8): > 100 µM; IC50 (CYP2C19): 63.8 µM; inhibition towards the activity of UGT1A9 (UGT1A9): 36.1%; IC50 at 30 min (CYP2C79): 85.6 µM; inhibition at 60 min (P-gp): < 25%
